Source: patent US7820201B2, “System for manufacturing controlled release dosage forms, such as zero-order release profile dosage form manufactured by three-dimensional printing” (Massachusetts Institute of Technology, priority 2001, dated 2010)
Where two headings read alike, the source gives them in different places.

Details: for ko, best fit rate constant for equation 9: Co 280 mgAPI/cc, 3-D release, simulated intestinal fluid pH 7.4, 37° C.
Description: The concentration C0 refers to the amount of API per unit volume in the dosage form after compression.
Each of the API release curves in FIG. 16 was fit to Equation 9 by performing a least-squares fit between the empirical data and model. This was done to determine the relevance of the model, and to determine rate constants for the powder/API systems for later use. […] For this purpose, the rate constants in the two different directions were assumed to be equal.
The erosion rate constants are given in units of mg/hr cm^2 where mg is mg of API released into the dissolution fluid. R^2 is a statistical measure of correlation, with a value of 1 indicating perfect correlation.

linear erosion rate constant delta r/delta t (70% Lactose: 30% HPMC conventional tablets): 0.341 mm/hr
ko, best fit rate constant for equation 9 (Lactose:HPMC 60:40, 100 mg API): 6.092 mg/hr · cm^2
ko, best fit rate constant for equation 9 (Lactose:HPMC 70:30, 100 mg API): 9.540 mg/hr · cm^2
ko, best fit rate constant for equation 9 (Lactose:HPMC 80:20, 100 mg API): 22.238 mg/hr · cm^2
SMILES: O=C(O)Cc1ccccc1Nc1c(Cl)cccc1Cl [diclofenac sodium]
